Columns and labels:
barnyard grass [1] = assay: Test Example 3: herbicidal effect by foliage application, Wagner pot (Table 18, symbol H); format: in vivo, barnyard grass (Echinochloa crus-galli)
In short: (§1)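 Plants were sown in alluvial soil held under 0.1–0.5 cm standing water and grown 14 days in a greenhouse at 25–30 °C. An emulsifiable formulation, water-diluted to the set dose, was then sprayed onto the foliage, and effects were scored three weeks later using previously defined criteria.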

Chinese sprangletop = assay: Test Example 3: herbicidal effect by foliage application, Wagner pot (Table 18, symbol D); format: in vivo, chinese sprangletop (Leptochloa chinensis)
In short: as §1

rice flat sedge = assay: Test Example 3: herbicidal effect by foliage application, Wagner pot (Table 18, symbol E); format: in vivo, rice flat sedge (Cyperus iria)
In short: as §1

southern crabgrass = assay: Test Example 5: herbicidal effect by foliage application, plastic box (Table 20, symbol F); format: in vivo, southern crabgrass (Digitaria ciliaris)
In short: (§2)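 Post-emergence foliar test in sterilized diluvial soil. Compound applied as water-diluted emulsion at a predetermined rate to 14-day-old plants; evaluation at three weeks.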

green foxtail = assay: Test Example 5: herbicidal effect by foliage application, plastic box (Table 20, symbol G); format: in vivo, green foxtail (Setaria viridis)
In short: as §2

barnyard grass [2] = assay: Test Example 5: herbicidal effect by foliage application, plastic box (Table 20, symbol H); format: in vivo, barnyard grass (Echinochloa crus-galli)
In short: as §2

wild oat = assay: Test Example 5: herbicidal effect by foliage application, plastic box (Table 20, symbol I); format: in vivo, wild oat (Avena fatua)
In short: as §2

blackgrass = assay: Test Example 5: herbicidal effect by foliage application, plastic box (Table 20, symbol J); format: in vivo, blackgrass (Alopecurus myosuroides)
In short: as §2

Italian ryegrass = assay: Test Example 5: herbicidal effect by foliage application, plastic box (Table 20, symbol K); format: in vivo, Italian ryegrass (Lolium multiflorum)
In short: as §2

windgrass = assay: Test Example 5: herbicidal effect by foliage application, plastic box (Table 20, symbol L); format: in vivo, windgrass (Apera spica-venti)
In short: as §2

velvetleaf = assay: Test Example 5: herbicidal effect by foliage application, plastic box (Table 20, symbol M); format: in vivo, velvetleaf (Abutilon theophrasti)
In short: as §2

redroot pigweed = assay: Test Example 5: herbicidal effect by foliage application, plastic box (Table 20, symbol N); format: in vivo, redroot pigweed (Amaranthus retroflexus)
In short: as §2

lambsquarters = assay: Test Example 5: herbicidal effect by foliage application, plastic box (Table 20, symbol O); format: in vivo, lambsquarters (Chenopodium album)
In short: as §2

chickweed = assay: Test Example 5: herbicidal effect by foliage application, plastic box (Table 20, symbol P); format: in vivo, common chickweed (Stellaria media)
In short: as §2

persian speedwell = assay: Test Example 5: herbicidal effect by foliage application, plastic box (Table 20, symbol R); format: in vivo, Persian speedwell (Veronica persica)
In short: as §2

[3] = amount of applied herbicide 320 g/ha, foliage application after 14-day growth, evaluated three weeks after application
[4] = foliage application, AAH 320 g/ha, three weeks after application
[5] = amount of applied herbicide 320 g/ha
[6] = foliage application, 320 g/ha, three weeks after application

Compound: CCCC(=O)Oc1c(C)nn(C)c(=O)c1-c1c(-c2cccc3c2OCC3)sc2c(Cl)cccc12 [4-099]
- herbicidal effect on barnyard grass (H) (barnyard grass [1]; 320 g/ha): 5 (Herbicidal rate of 90% or more (almost completely withered))
- herbicidal effect on Chinese sprangletop (D) (Chinese sprangletop; 320 g/ha): 5 (Herbicidal rate of 90% or more (almost completely withered))
- herbicidal effect on rice flat sedge (E) (rice flat sedge; 320 g/ha): 4 (Herbicidal rate of 70% or more and less than 90%)
- Herbicidal effect by foliage application, F: southern crabgrass (southern crabgrass; [3]): 0 (Herbicidal rate of 5% or less (almost no effect))
- Herbicidal effect by foliage application, G: green foxtail (green foxtail; [3]): 0 (Herbicidal rate of 5% or less (almost no effect))
- Herbicidal effect by foliage application, H: barnyard grass (barnyard grass [2]; [3]): 0 (Herbicidal rate of 5% or less (almost no effect))
- Herbicidal effect by foliage application, I: wild oat (wild oat; [3]): 0 (Herbicidal rate of 5% or less (almost no effect))
- Herbicidal effect by foliage application, J: blackgrass (blackgrass; [3]): 0 (Herbicidal rate of 5% or less (almost no effect))
- Herbicidal effect by foliage application, K: Italian ryegrass (Italian ryegrass; [3]): 0 (Herbicidal rate of 5% or less (almost no effect))
- Herbicidal effect by foliage application, L: windgrass (windgrass; [3]): 0 (Herbicidal rate of 5% or less (almost no effect))
- Herbicidal effect by foliage application, M: velvetleaf (velvetleaf; [3]): 1 (Herbicidal rate of 5% or more and less than 20%)
- Herbicidal effect by foliage application, N: redroot pigweed (redroot pigweed; [3]): 2 (Herbicidal rate of 20% or more and less than 40%)
- Herbicidal effect by foliage application, O: lambsquarters (lambsquarters; [3]): 0 (Herbicidal rate of 5% or less (almost no effect))
- Herbicidal effect by foliage application, P: chickweed (chickweed; [3]): 1 (Herbicidal rate of 5% or more and less than 20%)
- Herbicidal effect by foliage application, R: persian speedwell (persian speedwell; [3]): 4 (Herbicidal rate of 70% or more and less than 90%)

Compound: CCCC(=O)Oc1c(OC)nn(C)c(=O)c1-c1c(-c2cccc(OC(F)(F)F)c2)sc2ccccc12 [1-161]
- herbicidal effect on H (barnyard grass), rating 0-5 (barnyard grass [1]; 320 g/ha): 1 (Herbicidal rate of 5% or more and less than 20%)
- herbicidal effect on D (Chinese sprangletop), rating 0-5 (Chinese sprangletop; 320 g/ha): 0 (Herbicidal rate of 5% or less (almost no effect))
- herbicidal effect on E (rice flat sedge), rating 0-5 (rice flat sedge; 320 g/ha): 3 (Herbicidal rate of 40% or more and less than 70%)
- F: southern crabgrass, herbicidal effect (southern crabgrass; [4]): 0 (Herbicidal rate of 5% or less (almost no effect))
- G: green foxtail, herbicidal effect (green foxtail; [4]): 0 (Herbicidal rate of 5% or less (almost no effect))
- H: barnyard grass, herbicidal effect (barnyard grass [2]; [4]): 0 (Herbicidal rate of 5% or less (almost no effect))
- I: wild oat, herbicidal effect (wild oat; [4]): 0 (Herbicidal rate of 5% or less (almost no effect))
- J: blackgrass, herbicidal effect (blackgrass; [4]): 0 (Herbicidal rate of 5% or less (almost no effect))
- K: Italian ryegrass, herbicidal effect (Italian ryegrass; [4]): 0 (Herbicidal rate of 5% or less (almost no effect))
- L: windgrass, herbicidal effect (windgrass; [4]): 0 (Herbicidal rate of 5% or less (almost no effect))
- M: velvetleaf, herbicidal effect (velvetleaf; [4]): 1 (Herbicidal rate of 5% or more and less than 20%)
- N: redroot pigweed, herbicidal effect (redroot pigweed; [4]): 3 (Herbicidal rate of 40% or more and less than 70%)
- O: lambsquarters, herbicidal effect (lambsquarters; [4]): 0 (Herbicidal rate of 5% or less (almost no effect))
- P: chickweed, herbicidal effect (chickweed; [4]): 0 (Herbicidal rate of 5% or less (almost no effect))
- R: persian speedwell, herbicidal effect (persian speedwell; [4]): 0 (Herbicidal rate of 5% or less (almost no effect))

Compound: Cc1nn(C)c(=O)c(-c2c(-c3ccc(Oc4ncc(C(F)(F)F)cc4Cl)cc3)sc3ccc(F)cc23)c1O [2-467]
- herbicidal effect on H: barnyard grass (barnyard grass [1]; [5]): 3 (Herbicidal rate of 40% or more and less than 70%)
- herbicidal effect on D: Chinese sprangletop (Chinese sprangletop; [5]): 4 (Herbicidal rate of 70% or more and less than 90%)
- herbicidal effect on E: rice flat sedge (rice flat sedge; [5]): 4 (Herbicidal rate of 70% or more and less than 90%)
- F: southern crabgrass, herbicidal effect grade (southern crabgrass; [6]): 0 (Herbicidal rate of 5% or less (almost no effect))
- G: green foxtail, herbicidal effect grade (green foxtail; [6]): 2 (Herbicidal rate of 20% or more and less than 40%)
- H: barnyard grass, herbicidal effect grade (barnyard grass [2]; [6]): 1 (Herbicidal rate of 5% or more and less than 20%)
- I: wild oat, herbicidal effect grade (wild oat; [6]): 0 (Herbicidal rate of 5% or less (almost no effect))
- J: blackgrass, herbicidal effect grade (blackgrass; [6]): 0 (Herbicidal rate of 5% or less (almost no effect))
- K: Italian ryegrass, herbicidal effect grade (Italian ryegrass; [6]): 0 (Herbicidal rate of 5% or less (almost no effect))
- L: windgrass, herbicidal effect grade (windgrass; [6]): 5 (Herbicidal rate of 90% or more (almost completely withered))
- M: velvetleaf, herbicidal effect grade (velvetleaf; [6]): 1 (Herbicidal rate of 5% or more and less than 20%)
- N: redroot pigweed, herbicidal effect grade (redroot pigweed; [6]): 3 (Herbicidal rate of 40% or more and less than 70%)
- O: lambsquarters, herbicidal effect grade (lambsquarters; [6]): 4 (Herbicidal rate of 70% or more and less than 90%)
- P: chickweed, herbicidal effect grade (chickweed; [6]): 3 (Herbicidal rate of 40% or more and less than 70%)
- R: persian speedwell, herbicidal effect grade (persian speedwell; [6]): 4 (Herbicidal rate of 70% or more and less than 90%)

Compound: CCCC(=O)Oc1c(C)nn(C)c(=O)c1-c1c(-c2ccccc2SC)sc2ccccc12 [1-035]
- herbicidal effect on H (barnyard grass), rating 0-5 (barnyard grass [1]; 320 g/ha): 3 (Herbicidal rate of 40% or more and less than 70%)
- herbicidal effect on D (Chinese sprangletop), rating 0-5 (Chinese sprangletop; 320 g/ha): 0 (Herbicidal rate of 5% or less (almost no effect))
- herbicidal effect on E (rice flat sedge), rating 0-5 (rice flat sedge; 320 g/ha): 4 (Herbicidal rate of 70% or more and less than 90%)
- herbicidal effect grade, F: southern crabgrass (southern crabgrass; [6]): 0 (Herbicidal rate of 5% or less (almost no effect))
- herbicidal effect grade, G: green foxtail (green foxtail; [6]): 0 (Herbicidal rate of 5% or less (almost no effect))
- herbicidal effect grade, H: barnyard grass (barnyard grass [2]; [6]): 0 (Herbicidal rate of 5% or less (almost no effect))
- herbicidal effect grade, I: wild oat (wild oat; [6]): 3 (Herbicidal rate of 40% or more and less than 70%)
- herbicidal effect grade, J: blackgrass (blackgrass; [6]): 0 (Herbicidal rate of 5% or less (almost no effect))
- herbicidal effect grade, K: Italian ryegrass (Italian ryegrass; [6]): 0 (Herbicidal rate of 5% or less (almost no effect))
- herbicidal effect grade, L: windgrass (windgrass; [6]): 0 (Herbicidal rate of 5% or less (almost no effect))
- herbicidal effect grade, M: velvetleaf (velvetleaf; [6]): 0 (Herbicidal rate of 5% or less (almost no effect))
- herbicidal effect grade, N: redroot pigweed (redroot pigweed; [6]): 0 (Herbicidal rate of 5% or less (almost no effect))
- herbicidal effect grade, O: lambsquarters (lambsquarters; [6]): 0 (Herbicidal rate of 5% or less (almost no effect))
- herbicidal effect grade, P: chickweed (chickweed; [6]): 1 (Herbicidal rate of 5% or more and less than 20%)
- herbicidal effect grade, R: persian speedwell (persian speedwell; [6]): 0 (Herbicidal rate of 5% or less (almost no effect))

Reference: patent publication US20230085307A1, “PYRIDAZINONE COMPOUND AND HERBICIDE” (NISSAN CHEMICAL CORPORATION, priority 2019, published 2023)
